Key:
[1] = tested on: NZB/W F1 female mice; assay: Murine SLE model: BUN and anti-dsDNA antibody levels; assay type: in vivo, mouse
Procedure: (§1) Survival had been monitored until 42 weeks of age.
Blood samples had been collected from mice under isoflurane anesthesia every 4 weeks (at 24, 28, 32, 36, 40 weeks of age and autopsy), and the obtained serum samples had been kept at −70 °C until the analysis.

[2] = design: method as in EudraCT number: 2016-002816-42; conditions: ref EudraCT number: 2016-002816-42; cited from earlier work
[3] = tested on: THP1-Blue ISG human monocyte cell line; assay: cGAMP induced IFN promoter activity reporter assay (IRF-inducible SEAP); assay type: cell-based; conditions: 3 μM; 10 μM cGAMP; 24hr; significant
From the text: Supplementary Figure 2. A representative gating scheme of the T cell subset and CD138+ […]
To analyze T helper subsets, splenocytes were stained with antibodies to CD4 and CD25 (FITC-conjugated anti-mouse CD4 and APC-conjugated anti-mouse CD25, BD Biosciences).
Cells were fixed and permeabilized prior to staining with Foxp3 (Tube 007), ROR-γt (Tube 008), T-bet (Tube 009), and GATA-3 (Tube 010) antibodies (PE-, BD Biosciences).
The splenocytes were stained with PerCP-Cy5.5-conjugated anti-mouse CD3e (PerCP-cy5.5-CD3e, eBioscience, San Diego, CA, USA), fluorescein isothiocyanate (FITC)-conjugated anti-mouse CD4 (FITC-CD4, BD Biosciences, San Jose, CA, USA), PE-cyanine7-conjugated anti-mouse CD8a (eBioscience), and APC-conjugated anti-mouse CD25 (Tube 011).
Unstained control (no antibody, Tube 001), FITC control (FITC-conjugated anti-mouse CD4 only, Tube 002), APC control (APC-conjugated anti-mouse CD25 only, Tube 003), PE control (PE-conjugated anti-mouse CD138 (BD Bioscience) only, Tube 004), and PerCP-Cy5.5 CD3 control (PerCP-Cy5.5-conjugated anti-mouse CD3e only, Tube 005) were also used for gating. cGAMP induced IFN promoter activ ity
Supplementary Figure 3. […]
The SEAP activity in the culture supernatant was measured with Flexstation (Molecular Devices, USA) after incubation with Quanti-Blue solution (InvivoGen, USA) for 15 min. […]

[4] = Pharmacokinetic analysis after single intraperitoneal injection; assay type: in vivo, NZB/W F1 mice; conditions: for AUCinf / AUC0-24hr / Cmax / T1/2 / Tmax: plasma, mean ± SD; for AUCinf: extrapolated
Procedure: Four 23-week old female NZB/W F1 mice were purchased from Jackson Laboratory and housed in CKD Research Institute animal facility. This study was reviewed and approved by the Institutional Animal Care and Use Committee of CKD Research Institute. All procedures were in compliance with Animal Welfare Act Regulations and the Guide for the Care and Use of Laboratory Animals. The indicated amount of CKD-506 was injected intraperitoneally into NZB/W F1 mice. Blood samples were collected from retro-orbital plexus using a heparinized capillary tube under diethyl-ether anesthesia at pre-dose (0) and 0.25, 1, 2, 4, 8 and 24 hours post-dose at day of PK sampling. After centrifugation at 13,000 rpm for 4 min and 4 °C, ten microliters of the separated plasma was dispensed into microtube and 120 μl of organic solvent (90% acetonitrile (in MeOH, v/v)) was immediately added for deproteinization/extraction. The pre-treated samples had been kept at −70 °C until analysis. Ten microliters of internal standard (verapamil 500 ng/ml in acetonitrile) was added into the pre-treated plasma samples and vortexed for 1 min and then, centrifuged at 13,000 rpm for 4 min and 4 °C. Eighty microliters of the supernatant of the sample were transferred into a 96 well-autosampler plate and 40 μl of HPLC water was then added in each well. The concentration of CKD-506 in samples were analyzed using API 4000 QTRAP (AB SCIEX) (Framingham, MA).

[5] = tested on: NZB/W F1 female mice; assay: Murine SLE model: survival, severe proteinuria, UP/C; assay type: in vivo, mouse; conditions: for Survival rate at the end of the study: 42-weeks of age; for incidence of severe proteinuria (urine protein >300 mg/dl): 42 weeks of age
Procedure: as §1
During the experiments, urine protein levels had been measured every 2 weeks. Fresh urine was collected by performing abdominal massages. Urine protein was measured with the Coomassie Brilliant Blue method as described in our previous study. Urine creatinine was measured using a DRI-CHEM 3000 Colorimetric analyzer (Fujifilm, Tokyo, Japan) with the urine diluted in deionized water (1:100 dilution).

[6] = tested on: NZB/W F1 female mice; assay: Murine SLE model: serum immunoglobulin isotyping; assay type: in vivo, mouse; conditions: group CKD50
Procedure: as §1
Serum immunoglobulin concentrations were determined with mouse IgG1, IgG2A, IgG2B, IgG3, and IgM Isotyping kits and a mouse Mag Isotyping assay base kit (R&D Systems, Minneapolis, MN). Thirty-fold diluted sera were used for analysis of IgM and IgG2B levels, 6000-fold diluted sera were used for analysis of IgG1 and IgG2A levels and 48,000-fold diluted sera were used for analysis of IgG3 level.

## CKD-506
[1]; group CKD30, 40 weeks of age
  Levels of BUN vs vehicle: significantly lower
[1]; group CKD30, at autopsy
  Levels of BUN vs vehicle: significantly lower
[1]; group CKD50, 36 weeks of age
  Levels of BUN vs vehicle: significantly lower
[1]; group CKD50, 40 weeks of age
  Levels of BUN vs vehicle: significantly lower
[1]; group CKD50, at autopsy
  Levels of BUN vs vehicle: significantly lower
[2]
  safety in phase I clinical trial: did not reveal significant safety issues
[3]
  cGAMP induced IFN promoter activity: repressed
[4]; 10 mg/kg i.p. single
  AUCinf: 818 ± 130 ng·h/mL
  AUC0-24hr: 737 ± 104 ng/h/mL
  Cmax: 1336 ± 95.6 ng/mL
  T1/2: 14.0 ± 2.60 h
  Tmax: 0.25 ± 0.00 h
[4]; 30 mg/kg
  time for which dose is enough to inhibit in vivo HDAC6 activity: more than 2 hr
[4]; 30 mg/kg i.p. single
  AUCinf: 2129 ± 275 ng·h/mL
  AUC0-24hr: 1997 ± 290 ng/h/mL
  Cmax: 3749 ± 314 ng/mL
  T1/2: 9.64 ± 4.08 h
  Tmax: 0.25 ± 0.00 h
[4]; 50 mg/kg
  time for which dose is enough to inhibit (90% of) in vivo HDAC6 activity: more than 4 hr
[4]; 50 mg/kg i.p. single
  AUCinf: 4321 ± 408 ng·h/mL
  AUC0-24hr: 4028 ± 419 ng/h/mL
  Cmax: 7276 ± 585 ng/mL
  T1/2: 10.0 ± 1.33 h
  Tmax: 0.25 ± 0.00 h
[4]; 10, 30, 50 mg/kg i.p.
  exposure (Cmax and AUC) versus dose: increased in a dose-dependent manner
[4]; single IP, overall statement
  plasma half-life (T1/2): about 10 hrs
[5]; group CKD10: 10 mg/kg/day i.p.
  Survival rate at the end of the study: 73.3%
  incidence of severe proteinuria (urine protein >300 mg/dl): 13.3%
[5]; group CKD30: 30 mg/kg/day i.p.
  Survival rate at the end of the study: 93.3%
  incidence of severe proteinuria (urine protein >300 mg/dl): 6.7%
[5]; group CKD50: 50 mg/kg/day i.p.
  Survival rate at the end of the study: 93.3%
  incidence of severe proteinuria (urine protein >300 mg/dl): 0%
[5]; group CKD50, 42 weeks, not significantly different from other groups
  urine protein/urine creatinine (UP/C): lowest UP/C mean value
[6]
  serum levels of IgM vs vehicle: significantly lower

Source: PMC6251916, “CKD-506, a novel HDAC6-selective inhibitor, improves renal outcomes and survival in a mouse model of systemic lupus erythematosus” (Scientific Reports, 2018)
